This series has as its system CCRIS mutagenicity, Ames/micronucleus/aberration tests. As to the kind of experiment: CCRIS mutagenicity studies.
Setting [1] is: Test System: AMES SALMONELLA TYPHIMURIUM, Strain/Indicator: TA98, Metabolic Activation: NONE, Method: PREINCUBATION
Setting [2] is: Test System: AMES SALMONELLA TYPHIMURIUM, Strain/Indicator: TA100, Metabolic Activation: NONE, Method: PREINCUBATION
Setting [3] is: Test System: AMES SALMONELLA TYPHIMURIUM, Strain/Indicator: TA1535, Metabolic Activation: NONE, Method: PREINCUBATION
Setting [4] is: Test System: AMES SALMONELLA TYPHIMURIUM, Strain/Indicator: TA1537, Metabolic Activation: NONE, Method: PREINCUBATION
[5] abbreviates: Test System: E. COLI, Strain/Indicator: WP2 UVRA, Metabolic Activation: NONE, Method: PREINCUBATION

This is an account of results in PubChem BioAssay AID1259407 (Chemical Carcinogenesis Research Information System (CCRIS), 2018).

Activity calls are given as the source filed them. The rule behind the calls is not given here.

Turning to `CC(C)(S)C(=O)N[C@@H](CS)C(=O)O`, the mutagenic call runs as follows: under setting [1], “inactive; negative”; (Test System: AMES SALMONELLA TYPHIMURIUM, Strain/Indicator: TA98, Metabolic Activation: RAT, LIVER, S-9, Method: PREINCUBATION) “inactive; negative”; under setting [2], “inactive; negative”; (Test System: AMES SALMONELLA TYPHIMURIUM, Strain/Indicator: TA100, Metabolic Activation: RAT, LIVER, S-9, Method: PREINCUBATION) “inactive; negative”; under setting [3], “inactive; negative”; (Test System: AMES SALMONELLA TYPHIMURIUM, Strain/Indicator: TA1535, Metabolic Activation: RAT, LIVER, S-9, Method: PREINCUBATION) “inactive; negative”. For the same compound, the mutagenic call under setting [4] was “inactive; negative”; the mutagenic call (Test System: AMES SALMONELLA TYPHIMURIUM, Strain/Indicator: TA1537, Metabolic Activation: RAT, LIVER, S-9, Method: PREINCUBATION) is “inactive; negative”; the mutagenic call (Test System: AMES SALMONELLA TYPHIMURIUM, Strain/Indicator: TA1538, Metabolic Activation: NONE, Method: PREINCUBATION) was “inactive; negative”; the mutagenic call (Test System: AMES SALMONELLA TYPHIMURIUM, Strain/Indicator: TA1538, Metabolic Activation: RAT, LIVER, S-9, Method: PREINCUBATION) was “inactive; negative”; the mutagenic call (Test System: E. COLI, Strain/Indicator: WP2, Metabolic Activation: NONE, Method: PREINCUBATION) was “inactive; negative”; the mutagenic call under setting [5] was “inactive; negative”. Also, the mutagenic call (Test System: E. COLI, Strain/Indicator: WP2 UVRA, Metabolic Activation: RAT, LIVER, S-9, Method: PREINCUBATION) is “inactive; negative”.
For `O=[N+]([O-])NC1=NCCN1Cc1ccc(Cl)nc1`, the mutagenic call is, setting by setting: (End Point: In vitro micronucleus, Test System: Human lymphocytes, Metabolic Activation: None) “inactive; negative”; (End Point: In vitro micronucleus, Test System: Human peripheral blood lymphocytes, Metabolic Activation: None) “inactive; negative”; (End Point: In vitro micronucleus, Test System: Human peripheral blood lymphocytes, Metabolic Activation: Rat, Liver, S-9 (10%)) “active; positive (at highest dose only)”; (End Point: In vivo chromosomal aberrations, Test System: Bone marrow polychromatic erythrocytes, Species: Rat, Strain/Sex: Wistar, Route: Oral) “active; positive (structural changes)”; (End Point: In vivo micronucleus, Test System: Bone marrow polychromatic erythrocytes, Species: Rat, Strain/Sex: Wistar/Male, Route: Oral) “active; positive (at high dose)”; (End Point: In vivo micronucleus, Test System: Bone marrow polychromatic erythrocytes, Species: Rat, Strain/Sex: Wistar, Route: Oral) “active; positive”. In addition, the mutagenic call is “active; positive” (Test System: Ames Salmonella typhimurium, Strain/Indicator: TA98, Metabolic Activation: None, Method: Preincubation); “active; positive” (Test System: Ames Salmonella typhimurium, Strain/Indicator: TA98, Metabolic Activation: Rat, Liver, S-9 (10%), Aroclor 1254, Method: Preincubation); “inactive; negative” (Test System: Ames Salmonella typhimurium, Strain/Indicator: TA100, Metabolic Activation: None, Method: Preincubation); “inactive; negative” (Test System: Ames Salmonella typhimurium, Strain/Indicator: TA100, Metabolic Activation: Rat, Liver, S-9 (10%), Aroclor 1254, Method: Preincubation).
With `C=C(C)CC(C)(C)C`, the mutagenic call is, setting by setting: under setting [1], “inactive; negative”; (Test System: AMES SALMONELLA TYPHIMURIUM, Strain/Indicator: TA98, Metabolic Activation: RAT, LIVER, S-9, PHENOBARBITAL AND BETA-NAPHTHOFLAVONE, Method: PREINCUBATION) “inactive; negative”; under setting [2], “inactive; negative”; (Test System: AMES SALMONELLA TYPHIMURIUM, Strain/Indicator: TA100, Metabolic Activation: RAT, LIVER, S-9, PHENOBARBITAL AND BETA-NAPHTHOFLAVONE, Method: PREINCUBATION) “inactive; negative”; (Test System: AMES SALMONELLA TYPHIMURIUM, Strain/Indicator: TA102, Metabolic Activation: NONE, Method: PREINCUBATION) “inactive; negative”; (Test System: AMES SALMONELLA TYPHIMURIUM, Strain/Indicator: TA102, Metabolic Activation: RAT, LIVER, S-9, PHENOBARBITAL AND BETA-NAPHTHOFLAVONE, Method: PREINCUBATION) “inactive; negative”. Also, the mutagenic call by setting is: (Test System: AMES SALMONELLA TYPHIMURIUM, Strain/Indicator: TA104, Metabolic Activation: NONE, Method: PREINCUBATION) “inactive; negative”; (Test System: AMES SALMONELLA TYPHIMURIUM, Strain/Indicator: TA104, Metabolic Activation: RAT, LIVER, S-9, PHENOBARBITAL AND BETA-NAPHTHOFLAVONE, Method: PREINCUBATION) “inactive; negative”; under setting [3], “inactive; negative”; (Test System: AMES SALMONELLA TYPHIMURIUM, Strain/Indicator: TA1535, Metabolic Activation: RAT, LIVER, S-9, PHENOBARBITAL AND BETA-NAPHTHOFLAVONE, Method: PREINCUBATION) “inactive; negative”; under setting [4], “inactive; negative”; (Test System: AMES SALMONELLA TYPHIMURIUM, Strain/Indicator: TA1537, Metabolic Activation: RAT, LIVER, S-9, PHENOBARBITAL AND BETA-NAPHTHOFLAVONE, Method: PREINCUBATION) “inactive; negative”. Also, the mutagenic call is, setting by setting: (Test System: E. COLI, Strain/Indicator: WP2UVRA/PKM101, Metabolic Activation: NONE, Method: PREINCUBATION) “inactive; negative”; (Test System: E. COLI, Strain/Indicator: WP2UVRA/PKM101, Metabolic Activation: RAT, LIVER, S-9, PHENOBARBITAL AND BETA-NAPHTHOFLAVONE, Method: PREINCUBATION) “inactive; negative”; (Test System: E. COLI, Strain/Indicator: WP2UVRA, Metabolic Activation: NONE, Method: PREINCUBATION) “inactive; negative”; (Test System: E. COLI, Strain/Indicator: WP2UVRA, Metabolic Activation: RAT, LIVER, S-9, PHENOBARBITAL AND BETA-NAPHTHOFLAVONE, Method: PREINCUBATION) “inactive; negative”.
For the compound `O=c1oc2cccc3ccc4cccc1c4c32`, the mutagenic call is “inactive; negative” under setting [1]; “inactive; negative” (Test System: AMES SALMONELLA TYPHIMURIUM, Strain/Indicator: TA98, Metabolic Activation: RAT, LIVER, S-9, AROCLOR 1254, Method: PREINCUBATION); “inactive; negative” under setting [2]; “inactive; negative” (Test System: AMES SALMONELLA TYPHIMURIUM, Strain/Indicator: TA100, Metabolic Activation: RAT, LIVER, S-9, AROCLOR 1254, Method: PREINCUBATION).
In the case of `COc1c(Cl)cc2c(c1OC)N(C)[C@@H]1N3C(=O)[C@@]4(C)SS[C@@]3(C(=O)N4C)[C@H](O)[C@]21O`, the mutagenic call by setting is: (Test System: AMES SALMONELLA TYPHIMURIUM, Strain/Indicator: TA98, Metabolic Activation: NONE, Method: STANDARD PLATE) “inactive; negative”; (Test System: AMES SALMONELLA TYPHIMURIUM, Strain/Indicator: TA98, Metabolic Activation: RAT, LIVER, S-9, AROCLOR 1254, Method: STANDARD PLATE) “inactive; negative”; (Test System: AMES SALMONELLA TYPHIMURIUM, Strain/Indicator: TA100, Metabolic Activation: NONE, Method: STANDARD PLATE) “inactive; negative”; (Test System: AMES SALMONELLA TYPHIMURIUM, Strain/Indicator: TA100, Metabolic Activation: RAT, LIVER, S-9, AROCLOR 1254, Method: STANDARD PLATE) “inactive; negative”; (Test System: AMES SALMONELLA TYPHIMURIUM, Strain/Indicator: TA102, Metabolic Activation: NONE, Method: STANDARD PLATE) “inactive; negative”; (Test System: AMES SALMONELLA TYPHIMURIUM, Strain/Indicator: TA102, Metabolic Activation: RAT, LIVER, S-9, AROCLOR 1254, Method: STANDARD PLATE) “inactive; negative”. The mutagenic call reads like this: (Test System: AMES SALMONELLA TYPHIMURIUM, Strain/Indicator: TA1537, Metabolic Activation: NONE, Method: STANDARD PLATE) “inactive; negative”; (Test System: AMES SALMONELLA TYPHIMURIUM, Strain/Indicator: TA1537, Metabolic Activation: RAT, LIVER, S-9, AROCLOR 1254, Method: STANDARD PLATE) “inactive; negative”.
Regarding `[NH-]CCC(=O)[N-][C@@H](Cc1cnc[nH]1)C(=O)[O-].[Zn+2]`, the mutagenic call is “inactive; negative” (Test System: AMES SALMONELLA TYPHIMURIUM, Strain/Indicator: SD100, Metabolic Activation: NONE, Method: PREINCUBATION); “inactive; negative” (Test System: AMES SALMONELLA TYPHIMURIUM, Strain/Indicator: SD100, Metabolic Activation: RAT, LIVER, S-9, AROCLOR 1254, Method: PREINCUBATION); “inactive; negative” (Test System: AMES SALMONELLA TYPHIMURIUM, Strain/Indicator: TM677, Metabolic Activation: NONE, Method: PREINCUBATION); “inactive; negative” (Test System: AMES SALMONELLA TYPHIMURIUM, Strain/Indicator: TM677, Metabolic Activation: RAT, LIVER, S-9, AROCLOR 1254, Method: PREINCUBATION); “inactive; negative” under setting [5]; “inactive; negative” (Test System: E. COLI, Strain/Indicator: WP2 UVRA, Metabolic Activation: RAT, LIVER, S-9, AROCLOR 1254, Method: PREINCUBATION).
